Data as given in the CheMixHub viscosity set.

Assay: xn = mol fraction of the nth substance listed

COC(C)(C)C + CCCCCCC
303.15 K, 101 kPa
Settings	viscosity [mPa·s]
x1 = 0.1976	0.373
x1 = 0.2745	0.369
x1 = 0.3423	0.364
x1 = 0.4536	0.359
x1 = 0.5656	0.356
x1 = 0.6441	0.353
x1 = 0.7685	0.35
x1 = 0.8606	0.349

Clc1ccccc1 + C=C(C)C(=O)OC
303.15 K, 101 kPa
Settings	viscosity [mPa·s]
x2 = 0.099	0.6943
x2 = 0.1971	0.6738
x2 = 0.3987	0.6345
x2 = 0.4982	0.6147
x2 = 0.6984	0.5743
x2 = 0.7989	0.5538
x2 = 0.8987	0.5349

Clc1cccc2ccccc12 + Cc1ccccc1
viscosity [mPa·s], 101.33 kPa
Settings	x1 = 0.0995	x1 = 0.1995	x1 = 0.3037	x1 = 0.3973	x1 = 0.4962	x1 = 0.597	x1 = 0.6945	x1 = 0.7972	x1 = 0.8918
298.15 K	0.596	0.711	0.838	0.979	1.16	1.357	1.614	1.941	2.321
303.15 K	0.561	0.665	0.788	0.91	1.074	1.249	1.484	1.764	2.091
308.15 K	0.529	0.626	0.727	0.849	0.995	1.153	1.361	1.616	1.88

CCc1ccccc1 + COCCO
viscosity [mPa·s], 101 kPa
Settings	298.15 K	308.15 K
x2 = 0.0558	0.65	0.548
x2 = 0.1525	0.679	0.577
x2 = 0.2511	0.717	0.612
x2 = 0.3504	0.766	0.655
x2 = 0.4525	0.831	0.708
x2 = 0.5021	0.869	0.738
x2 = 0.5522	0.911	0.771
x2 = 0.6499	1.008	0.844
x2 = 0.75	1.131	0.933
x2 = 0.853	1.291	1.043
x2 = 0.9546	1.488	1.175

CCCC(C)C + CCCCCCCCCCCCCCCC
298 K, 101.33 kPa
Settings	viscosity [mPa·s]
x1 = 0.1177	2.572
x1 = 0.2071	2.199
x1 = 0.3082	1.835
x1 = 0.4013	1.53
x1 = 0.4982	1.241
x1 = 0.6029	0.9821
x1 = 0.7034	0.7606
x1 = 0.8025	0.5679
x1 = 0.9006	0.3949

Clc1ccccc1 + CC(C)CO
viscosity [mPa·s], 101.33 kPa
Settings	x1 = 0.101	x1 = 0.2015	x1 = 0.2966	x1 = 0.4019	x1 = 0.4952	x1 = 0.5979	x1 = 0.6965	x1 = 0.8009	x1 = 0.8977
298.15 K	2.558	1.975	1.593	1.301	1.124	0.9772	0.8803	0.8094	0.7666
313.15 K	1.663	1.336	1.128	0.9531	0.8497	0.7614	0.7035	0.6586	0.633

CCCCC(CC)CN (centres undefined) + COCCOCCOCCOC
viscosity [mPa·s], 101.33 kPa
Settings	x2 = 0.0746	x2 = 0.153	x2 = 0.237	x2 = 0.326	x2 = 0.42	x2 = 0.521	x2 = 0.629	x2 = 0.744	x2 = 0.867
303.2 K	1.02	1.05	1.13	1.19	1.25	1.32	1.39	1.54	1.64
313.2 K	0.88	0.9	0.97	1.01	1.06	1.11	1.16	1.31	1.39
